Measured values taken from patent publication US20220010300A1, “METHODS OF TREATING NEURODEGENERATIVE DISORDERS AND IDENTIFYING TARGETS THEREFORE” (The Board of Trustees of the Leland Stanford Junior …, priority 2019, published 2022).

How the values were obtained:
BV-2 cells [1] = assay: BODIPY in vitro staining of BV-2 cells (confocal counting of BODIPY+ cells); format: cell-based, mouse
Experimental: (§1) To induce lipid droplet formation, subconfluent BV-2 cells were treated for 18 hours with 5 μg/ml LPS (Lipopolysaccharide from E. coli, Sigma) in DMEM+5% FBS. Controls received vehicle solution (PBS) only. To inhibit lipid droplet formation, BV-2 cells were pre-treated with 1 μM Triacsin C (Cayman Chemical) or vehicle (saline) in DMEM+5% FBS. 30 min after adding Triacsin C, LPS or LPS-vehicle solution were added and cells were co-treated with Triacsin C and LPS for 18 hours.
BV-2 cells were seeded at 5×10^4 cells on poly-L-lysine coated glass coverslips in DMEM+5% FBS. Following specific treatments, cells were fixed in 4% PFA for 30 min, washed 3× in PBS and incubated in PBS with BODIPY™ 493/503 (1:1000 from 1 mg/ml stock solution in DMSO; ThermoFisher) and Hoechst 33342 (1:2000, ThermoFisher) for 10 min at RT. Sections were washed twice in PBS and mounted on microscope slides with Vectashield (H-1000, Vector Laboratories). Four randomly selected visual fields per coverslip were photographed (40× magnification) using a confocal scanning laser microscope (LSM 700, Zeiss) with LSM software (ZEN 2011). To analyze the percentage of lipid droplet-containing BV-2 cells, numbers of total Hoechst^+ cells and of Hoechst^+ cells with BODIPY^+ lipid droplets were counted and the percentage of BODIPY^+BV-2 cells was calculated.

BV-2 cells [2] = assay: BODIPY fluorescence of BV-2 cells by flow cytometry; format: cell-based, mouse
Experimental: as §1

BV-2 cells [3] = assay: ROS assay (CellROX fluorescence, microscopy and flow cytometry); format: cell-based, mouse
Experimental: To measure ROS in BV-2 cells, cells were split into 24 well plates at 5×10^4 cells per well in DMEM+5% FBS and treated with LPS, Triacsin C and vehicle solutions for 18 hours. Next, cells were incubated in DMEM+5% FBS with CellROX™ Orange (1:500, Invitrogen) for 30 min at 37° C., washed twice in PBS, and CellROX™ Orange Intensity was examined by fluorescence microscopy (Keyence Corp., Osaka, Japan). Following microscopic analysis, cells were detached using TripLE, transferred to FACS tubes and CellROX™ Orange intensity was analyzed on BD AccuriC6 flow cytometer.

BV-2 cells [4] = assay: In vitro phagocytosis assay (pHrodo red Zymosan uptake); format: cell-based, mouse
Experimental: as §1
For in vitro phagocytosis assays, BV-2 cells were split into 96 well plates at 1000 cells per well in DMEM+5% FBS and treated with LPS, Triacsin C and vehicle solutions for 18 hours. Following specific treatments, 5 ng pHRodo Red Zymosan™ Bioparticles (Thermo Fisher Scientific P35364) in 100 μl DMEM+5% FBS were added per well. Four phase contrast and red fluorescent images per well were acquired every 2 hours for 16 hours using the Incucyte S3 live cell analysis system (Essen Bioscience). For each time point, phagocytosis was calculated by normalizing red fluorescent area to phase confluence.

[5] = test system: microglia in the hippocampus; assay: LPS injections in young mice, BODIPY/Iba1 staining of the hippocampus; format: in vivo, mouse; conditions: 3-month-old mice, i.p. 1 mg LPS/kg BW once daily for four days, compared with vehicle treated controls
Experimental: 3-month-old wild type mice were injected with LPS (Lipopolysaccharide from E. coli, Sigma), i.p. 1 mg LPS/kg body weight once daily for four consecutive days. Control mice were injected with body weight corresponding volumes of PBS. 24 hours after the last LPS injection mice were euthanized, brains were extracted and brain tissue was processed for immunohistochemistry staining (see Perfusion and tissue processing and Immunohistochemistry and BODIPY staining).
Mice were anesthetized using Avertin (Tribromoethanol) and transcardially perfused with 0.9% NaCl solution. Brains were extracted, fixed in 4% paraformaldehyde for 48 hours, cryoprotected in 30% sucrose and then sectioned sagitally or coronally ([…]) using a freezing microtome (Leica). […]
For quantification of BODIPY^+ microglia, of CD68^hi microglia, of BODIPY^+ lipid droplet numbers and of lipid droplet size, analyses were performed blinded on coded slides. […]
To analyze the percentage of lipid droplet-containing microglia, numbers of total TMEM119^+ or lba1^+ cells and of TMEM119+BODIPY^+ or lba1+BODIPY^+ cells were counted and the percentage of BODIPY^+ microglia was calculated. To assess the percentage of CD68^hi cells, BODIPY^−lba1^+ and BODIPY^+lba1^+ cells with clearly visible CD68 immunoreactive particles were counted and normalized to total BODIPY^−lba1^+ and BODIPY^+lba1^+ cells.

[6] = test system: hippocampal LD-low and LD-high microglia; assay: Cytokine assay on acutely isolated primary microglia (multiplex array); format: cell-based, mouse; conditions: aged mice, 100 ng/ml LPS for 8 hours; IL-10, CCL3, CCL4, IL-6, CCL5, TNF-α, IL-1β, IL-1α, CXCL1, CXCL10
Experimental: Primary microglia from hippocampi of 3-month (young) and 20-month-old (aged) wild type mice were isolated as described above (see Microglia Isolation, hippocampi from 3 mice were pooled per age group). CD11b^+CD45^lo primary microglia from young mice, and CD11b^+CD45^lo primary microglia sorted for BODIPY^lo and BODIPY^hi cells from aged mice were sorted into 5% FBS-containing microglial culture medium (DMEM/F12, 1% Pen/Strep; 2 mM glutamine; 5 ug/mL N-acetyl cysteine; 5 ug/mL insulin; 100 ug/mL apo-transferrin; 100 ng/mL sodium selenite; 2 ng/mL human TGF-2; 100 ng/mL murine IL-34; 1.5 ug/mL ovine wool cholesterol; 10 ug/mL heparin sulfate)s. Cells were seeded into 96 well plates at 5000 cells per well in 100 μl microglia culture medium with 5% FBS and incubated for 30 min in the incubator (37° C., 5% CO2). Next, cells were treated with 100 ng/ml LPS or PBS for 8 hours, and supernatant was collected and secreted signaling proteins were measured in culture supernatants using the ‘Mouse Cytokine/Chemokine Array 31-Plex’ from Eve Technologies (Canada).

BV-2 cells [7] = assay: Iodo-BODIPY irradiation assay with Calcein AM live cell staining; format: cell-based, mouse; conditions: LPS 5 μg/ml for 18 hours, 3.8 μM iodo-BODIPY for 30 min, green LED irradiation for 3 hours
Experimental: BV-2 cells were treated for 18 hours with 5 μg/ml LPS in DMEM with 5% FBS to induce lipid droplet formation. Controls received vehicle solution (PBS) only. Cells were washed twice in PBS and incubated in 3.8 μM iodo-BODIPY (see FIG. 8, Panel A; iodo-BODIPY was kindly provided by Prof. Carolyn Bertozzi, Chemistry department, Stanford University) in PBS for 30 min in the incubator (5% CO2, 37° C.). Cells were washed twice in PBS and then irradiated under visible light (green LED; 9 W, 150 mA, 2000 lux) for 3 hours at RT. Non-irradiated cells were kept at RT for 3 hours without irradiation.
To assess cell viability after photoirradiation, irradiated and non-irradiated BV-2 cells were stained with 1 μM Calcein AM (Invitrogen) in PBS for 15 min at 37° C. Cells were then examined by fluorescence microscopy (Keyence Corp., Osaka, Japan) and the percentage of green, Calcein^+BV-2 cells (live cells) of total methyl-di-iodo BODIPY^+ cells (red, lipid droplet containing cells) was calculated.

[8] = 1 μM Triacsin C co-treated with LPS (5 μg/ml) for 18 hours

CCC/C=C/C/C=C/C=C/C=N/NN=O [Triacsin C]
effect on LPS-induced increase in BODIPY+ cells (BV-2 cells [1]; [8]): abolished the LPS-induced increase
effect on BODIPY+ signal in LPS-stimulated BV-2 cells by flow cytometry (BV-2 cells [2]; [8]): inhibited an increase
ROS levels (CellROX fluorescence) in LPS-treated cells (BV-2 cells [3]; [8]): significantly reduce ROS levels
pHrodo red Zymosan phagocytosis in LPS-treated cells (BV-2 cells [4]; [8]): increased Zymosan phagocytosis

Lipopolysaccharide from E. coli [LPS]
increase of lipid droplet containing BODIPY+ BV-2 cells (BV-2 cells [1]; 5 μg/ml LPS for 18 hours, compared with control BV-2 cells): 5 fold
increase in lipid droplet containing microglia (BODIPY+Iba1+) in the hippocampus [5]: twofold increase
BODIPY+ fluorescence by flow cytometry (BV-2 cells [2]; 5 μg/ml LPS for 18 hours): significantly increased
ROS generation (CellROX fluorescence) in BV-2 cells (BV-2 cells [3]; 5 μg/ml LPS for 18 hours): induced elevated ROS generation
phagocytosis (pHrodo red Zymosan uptake) in BV-2 cells (BV-2 cells [4]; 5 μg/ml LPS for 18 hours): significantly increased phagocytosis
cytokine release of LD-high microglia compared to LD-low microglia upon LPS treatment [6]: strongly exaggerated release of multiple cytokines

iodo-BODIPY [iBP]
cell killing after photoirradiation of iBP+ BV-2 cells (Calcein live cell imaging) (BV-2 cells [7]): selectively killed lipid-droplet rich cells
